Species: Homo sapiens
Assay: Potency relative to fluocinolone 16,17-acetonide in the human vasoconstictor test
Format: functional

| Compound | Potency |
| --- | --- |
| CCCCC(=O)O[C@]1(C(=O)CO)CCC2C3CCC4=CC(=O)C=CC4(C)C3C(O)CC21C (stereo not given in full) | <1 |
| CCCCC(=O)O[C@]1(C(=O)COC(C)=O)CCC2C3C[C@H](F)C4=CC(=O)C=CC4(C)[C@@]3(F)C(O)CC21C (stereo not given in full) | 720 |
| COC(=O)[C@@]1(OC(C)=O)[C@@H](C)CC2C3CCC4=CC(=O)C=CC4(C)[C@@]3(F)[C@@H](O)CC21C (stereo not given in full) | 385 |
| CC(=O)OCC(=O)[C@@]12OC(C)(C)O[C@@H]1C[C@H]1[C@@H]3C[C@H](F)C4=CC(=O)C=C[C@]4(C)[C@@]3(F)[C@@H](O)C[C@@]12C [FLUOCINONIDE] | 300 |
| CCC(=O)O[C@]1(C(=O)CCl)[C@@H](C)C[C@H]2[C@@H]3CCC4=CC(=O)C=C[C@]4(C)[C@@]3(F)[C@@H](O)C[C@@]21C [CLOBETASOL PROPIONATE] | 1869 |
| CCC(=O)OCC(=O)[C@@]1(O)[C@@H](C)C[C@H]2[C@@H]3CCC4=CC(=O)C=C[C@]4(C)[C@@]3(F)[C@@H](O)C[C@@]21C | 40 |
| CCCCC(=O)O[C@]1(C(=O)COC(C)=O)CC[C@H]2[C@@H]3C[C@H](F)C4=CC(=O)CC[C@]4(C)[C@@]3(F)[C@@H](O)C[C@@]21C | 360 |
| C[C@@H]1CC2C3CCC4=CC(=O)C=CC4(C)[C@@]3(F)C(O)CC2(C)[C@@]1(O)C(=O)COP(=O)(O)O (stereo not given in full) | 2 |
| CC(C)C(=O)OCC(=O)[C@@]1(OC(=O)C(C)C)CCC2C3C[C@H](F)C4=CC(=O)C=CC4(C)[C@@]3(F)C(O)CC21C (stereo not given in full) | 720 |
| CCCCC(=O)O[C@]1(C(=O)CO)CCC2C3C[C@H](F)C4=CC(=O)C=CC4(C)[C@@]3(F)C(O)CC21C (stereo not given in full) | 360 |
| CCC(=O)O[C@]1(C(C)=O)CCC2C3C[C@H](F)C4=CC(=O)C=CC4(C)[C@@]3(F)C(O)CC21C (stereo not given in full) | 900 |
| CC(C)C(=O)O[C@]1(C(=O)CO)CCC2C3C[C@H](F)C4=CC(=O)C=CC4(C)[C@@]3(F)C(O)CC21C (stereo not given in full) | <360 |
| C[C@H]1C[C@H]2C3CCC4=CC(=O)C=C[C@]4(C)[C@@]3(F)[C@@H](O)C[C@]2(C)[C@@]1(O)C(=O)O (stereo not given in full) | <1 |
| CCCC(=O)O[C@]1(C(=O)COC(=O)C(C)C)CCC2C3C[C@H](F)C4=CC(=O)C=CC4(C)[C@@]3(F)C(O)CC21C (stereo not given in full) | 1080 |
| CCCC(=O)OCC(=O)[C@@]1(O)C(C)CC2C3CCC4=CC(=O)C=CC4(C)[C@@]3(F)C(O)CC21C (stereo not given in full) | 85 |
| CCC(=O)O[C@]1(C(=O)O)[C@@H](C)CC2C3CCC4=CC(=O)C=CC4(C)C3(F)[C@@H](O)CC21C (stereo not given in full) | <1 |
| CCC(=O)O[C@]1(C(=O)CO)CCC2C3C[C@H](F)C4=CC(=O)C=CC4(C)[C@@]3(F)C(O)CC21C (stereo not given in full) | <360 |
| CCCC(=O)O[C@]1(C(=O)CO)CCC2C3C[C@H](F)C4=CC(=O)C=CC4(C)[C@@]3(F)C(O)CC21C (stereo not given in full) | <360 |
| CC(=O)O[C@]1(C(=O)CO)CCC2C3C[C@H](F)C4=CC(=O)C=CC4(C)[C@@]3(F)C(O)CC21C (stereo not given in full) | <360 |
| CCCCC(=O)O[C@]1(C(=O)CO)[C@@H](C)C[C@H]2[C@@H]3CCC4=CC(=O)C=C[C@]4(C)[C@@]3(F)[C@@H](O)C[C@@]21C [BETAMETHASONE VALERATE] | 360 |
| C[C@@H]1C[C@H]2[C@@H]3C[C@H](F)C4=CC(=O)C=C[C@]4(C)[C@@]3(F)[C@@H](O)C[C@]2(C)[C@@]1(O)C(=O)COC(=O)C(C)(C)C [FLUMETHASONE PIVALATE] | 360 |
| CC(=O)O[C@]1(C(=O)O)[C@@H](C)CC2C3CCC4=CC(=O)C=CC4(C)C3(F)[C@@H](O)CC21C (stereo not given in full) | <1 |

| Compound | Potency |
| --- | --- |
| CCCOC(=O)[C@@]1(OC(=O)CC)[C@@H](C)CC2C3CCC4=CC(=O)C=CC4(C)C3(F)[C@@H](O)CC21C (stereo not given in full) | 30 |
| CC(C)C(=O)O[C@]1(C(=O)CO)C(C)CC2C3CCC4=CC(=O)C=CC4(C)[C@@]3(F)C(O)CC21C (stereo not given in full) | 470 |
| CC(=O)[C@@]1(O)CCC2C3CCC4=CC(=O)CCC4(C)C3C(O)CC21C (stereo not given in full) | 0.4 |
| CCCOC(=O)[C@@]1(O)[C@@H](C)CC2C3CCC4=CC(=O)C=CC4(C)C3(F)[C@@H](O)CC21C (stereo not given in full) | 5 |
| C[C@]12C=CC(=O)C=C1CC[C@@H]1[C@@H]2[C@@H](O)C[C@@]2(C)[C@H]1CC[C@]2(O)C(=O)COP(=O)(O)O [PREDNISOLONE PHOSPHORIC ACID] | 0.1 |
| CC(=O)O[C@]1(C(C)=O)CCC2C3C[C@H](F)C4=CC(=O)C=CC4(C)[C@@]3(F)C(O)CC21C (stereo not given in full) | 540 |
| CC(=O)[C@H]1CC[C@H]2[C@@H]3C[C@H](C)C4=CC(=O)CC[C@]4(C)[C@H]3[C@@H](O)C[C@]12C [MEDRYSONE] | <1 |
| CCC(=O)OCC(=O)[C@@]1(OC(=O)CC)CCC2C3C[C@H](F)C4=CC(=O)C=CC4(C)[C@@]3(F)C(O)CC21C (stereo not given in full) | 853 |
| CC(=O)O[C@]1(C(=O)CCl)[C@@H](C)CC2C3CCC4=CC(=O)C=CC4(C)[C@@]3(F)[C@@H](O)CC21C (stereo not given in full) | 812 |
| CCC(=O)O[C@]1(C(=O)COC(C)=O)CCC2C3C[C@H](F)C4=CC(=O)C=CC4(C)[C@@]3(F)C(O)CC21C (stereo not given in full) | 1080 |
| CCOC(=O)[C@@]1(OC(C)=O)[C@@H](C)CC2C3CCC4=CC(=O)C=CC4(C)C3(F)[C@@H](O)CC21C (stereo not given in full) | 16 |
| CCCC(=O)O[C@]1(C(=O)COC(C)=O)CC[C@H]2[C@@H]3C[C@H](F)C4=CC(=O)C=C[C@]4(C)[C@@]3(F)[C@@H](O)C[C@@]21C [DIFLUPREDNATE] | 1170 |
| CCCC(=O)O[C@]1(C(=O)COC(=O)CC)CCC2C3C[C@H](F)C4=CC(=O)C=CC4(C)[C@@]3(F)C(O)CC21C (stereo not given in full) | 1058 |
| CCCC(=O)O[C@]1(C(=O)CO)C(C)CC2C3CCC4=CC(=O)C=CC4(C)[C@@]3(F)C(O)CC21C (stereo not given in full) | 168 |
| CC(=O)O[C@]1(C(=O)COC(=O)C(C)C)CCC2C3C[C@H](F)C4=CC(=O)C=CC4(C)[C@@]3(F)C(O)CC21C (stereo not given in full) | 720 |
| CCCC(=O)O[C@]1(C(=O)OC)[C@@H](C)CC2C3CCC4=CC(=O)C=CC4(C)[C@@]3(F)[C@@H](O)CC21C (stereo not given in full) | 175 |
| CCC(=O)O[C@]1(C(=O)OCCl)[C@@H](C)CC2C3CCC4=CC(=O)C=CC4(C)[C@@]3(F)[C@@H](O)CC21C (stereo not given in full) | 400 |
| CC(=O)OCC(=O)[C@@]1(O)[C@H](C)C[C@H]2[C@@H]3CCC4=CC(=O)C=C[C@]4(C)[C@@]3(F)[C@@H](O)C[C@@]21C [DEXAMETHASONE ACETATE] | 8 |
| CCC(=O)O[C@]1(C(=O)COC(=O)C(C)(C)C)CCC2C3C[C@H](F)C4=CC(=O)C=CC4(C)[C@@]3(F)C(O)CC21C (stereo not given in full) | 720 |
| CCC(=O)OCC(=O)[C@@]1(OC(=O)C(C)C)CCC2C3C[C@H](F)C4=CC(=O)C=CC4(C)[C@@]3(F)C(O)CC21C (stereo not given in full) | 900 |
| CCCC(=O)O[C@]1(C(=O)OCC)[C@@H](C)CC2C3CCC4=CC(=O)C=CC4(C)C3(F)[C@@H](O)CC21C (stereo not given in full) | 40 |
| CCOC(=O)[C@@]1(OC(=O)CC)[C@@H](C)CC2C3CCC4=CC(=O)C=CC4(C)[C@@]3(F)[C@@H](O)CC21C (stereo not given in full) | 75 |

| Compound | Potency |
| --- | --- |
| CC1CC2C3CCC4=CC(=O)C=CC4(C)[C@@]3(Cl)C(O)CC2(C)[C@@]1(O)C(=O)CO (stereo not given in full) | 0.8 |
| CC(C)C(=O)OC1(C(=O)CCl)[C@@H](C)CC2C3CCC4=CC(=O)C=CC4(C)[C@]3(F)[C@@H](O)CC21C (stereo not given in full) | 378 |
| C[C@]12C=CC(=O)C=C1[C@@H](F)C[C@@H]1[C@@H]2[C@@H](O)C[C@@]2(C)[C@H]1CC[C@]2(O)C(=O)CO [FLUPREDNISOLONE] | 1 |
| CCC(=O)OCC(=O)[C@@]1(OC(=O)CC)[C@@H](C)C[C@H]2[C@@H]3CCC4=CC(=O)C=C[C@]4(C)[C@@]3(Cl)[C@@H](O)C[C@@]21C [BECLOMETHASONE DIPROPIONATE] | 500 |
| CC12C=CC(=O)C=C1[C@@H](F)CC1C3CC[C@](O)(C(=O)CO)C3(C)CC(O)[C@@]12F (stereo not given in full) | <360 |
| CC(=O)O[C@]1(C(=O)CO)C(C)CC2C3CCC4=CC(=O)C=CC4(C)[C@@]3(F)C(O)CC21C (stereo not given in full) | 114 |
| CCCC(=O)OCC(=O)[C@@]1(OC(=O)CCC)CC[C@H]2[C@@H]3C[C@H](F)C4=CC(=O)C=C[C@]4(C)[C@@]3(F)[C@@H](O)C[C@@]21C | 540 |
| CC(=O)OCC(=O)[C@@]1(O)[C@@H](C)C[C@H]2[C@@H]3CCC4=CC(=O)C=C[C@]4(C)[C@@]3(F)[C@@H](O)C[C@@]21C [BETAMETHASONE ACETATE] | 18 |
| CCCC(=O)OCC(=O)[C@@]1(OC(=O)CC)CCC2C3C[C@H](F)C4=CC(=O)C=CC4(C)[C@@]3(F)C(O)CC21C (stereo not given in full) | 1260 |
| CCCCC(=O)O[C@]1(C(=O)CO)CCC2C3C[C@H](F)C4=CC(=O)CCC4(C)[C@@]3(F)C(O)CC21C (stereo not given in full) | 360 |
| CCC(=O)O[C@]1(C(=O)CO)[C@@H](C)C[C@H]2[C@@H]3CCC4=CC(=O)C=C[C@]4(C)[C@@]3(F)[C@@H](O)C[C@@]21C | 190 |
| CCC(=O)OCC(=O)[C@@]1(OC(=O)CC)[C@@H](C)C[C@H]2[C@@H]3CCC4=CC(=O)C=C[C@]4(C)[C@@]3(F)[C@@H](O)C[C@@]21C [BETAMETHASONE DIPROPIONATE] | 1300 |
| CCCCC(=O)O[C@]1(C(=O)O)[C@@H](C)CC2C3CCC4=CC(=O)C=CC4(C)C3(F)[C@@H](O)CC21C (stereo not given in full) | <1 |
| CCCCC(=O)OCC(=O)[C@@]1(O)C(C)CC2C3CCC4=CC(=O)C=CC4(C)[C@@]3(F)C(O)CC21C (stereo not given in full) | 26 |
| CC12CCC(=O)C=C1CCC1C2C(O)CC2(C)C1CC[C@]2(O)C(=O)COP(=O)(O)O (stereo not given in full) | 0.01 |
| CCCC(=O)OC1(C(=O)CCl)[C@@H](C)CC2C3CCC4=CC(=O)C=C[C@]4(C)[C@@]3(F)[C@@H](O)C[C@@]21C (stereo not given in full) | 1166 |
| CCC(=O)O[C@]1(C(C)=O)C(C)CC2C3CCC4=CC(=O)C=CC4(C)[C@@]3(F)C(O)CC21C (stereo not given in full) | 1170 |
| CCC(=O)O[C@]1(C(=O)COC(=O)C(C)C)CCC2C3C[C@H](F)C4=CC(=O)C=CC4(C)[C@@]3(F)C(O)CC21C (stereo not given in full) | 1080 |
| CC(C)C(=O)OCC(=O)[C@@]1(O)C(C)CC2C3CCC4=CC(=O)C=CC4(C)[C@@]3(F)C(O)CC21C (stereo not given in full) | 90 |
| CCCOC(=O)[C@@]1(OC(=O)CCC)[C@@H](C)CC2C3CCC4=CC(=O)C=CC4(C)C3(F)[C@@H](O)CC21C (stereo not given in full) | 40 |
| CC(=O)OCC(=O)[C@@]1(OC(=O)C(C)C)CCC2C3C[C@H](F)C4=CC(=O)C=CC4(C)[C@@]3(F)C(O)CC21C (stereo not given in full) | 720 |

Source: ChEMBL document CHEMBL1122453, “Structure-activity relationships in the antiinflammatory steroids: a pattern-recognition approach” (1983)
